The values below come from patent US11827628B2, “Compositions and methods for inhibition of the JAK pathway” (Rigel Pharmaceuticals, Inc., priority 2005, dated 2023).

The test system of test [1] is Primary human T-cells. The test can be described thus: Primary Human T-Cell Proliferation Assay Stimulated with IL-2 (CellTiter-Glo). The test is classed as cell-based. The conditions noted are these: primary human T-cell proliferation stimulated with IL-2; read-out: IC50, Example 42. An outline of the steps:
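IC50 derived from CellTiter-Glo ATP signal after 72 hours of IL-2-driven proliferation at 37° C. Cells: primary human T-cells from blood, stimulated beforehand 3-4 days on anti-CD3/anti-CD28 with IL-2, then rested from IL-2 before compound exposure in duplicate; IL-2-free wells served as unstimulated control.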
(In general: ATP-based viability assays read luminescence as a measure of living cells.)

Test [2] relates to up-regulation of ICAM-1 (CD54) by IFNγ in A549 lung epithelial cells. The test can be described thus: A549 Epithelial Line Stimulated with IFNγ (ICAM-1 surface expression, FACS). Type of test: cell-based, human. As to conditions: A549 epithelial line stimulated with IFNγ; ICAM-1 expression by FACS; read-out: IC50, Example 43. An outline of the steps:
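ICAM-1 (CD54) flow cytometry on live-gated A549 cells, geometric mean versus dose giving EC50. Cells received IFNγ at 75 ng/mL for 24 h after a 1 h compound pre-treatment spanning 30 μM to 14 nM in medium with 5% FBS and 0.3% DMSO.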
In general terms: In flow cytometry, cells or beads pass a laser one at a time.

The IC50 is the concentration at which inhibition is half-maximal.

For the compound `Cc1cc(Nc2nc(Nc3ccc(S(N)(=O)=O)cc3)ncc2F)ccc1OC(C)C#N` (racemic) [Compound I-60, Racemic N2-(4-Aminosulfonyl)phenyl-N4-[4-(1-cyano)ethoxy-3-methyl]phenyl-5-fluoro-2,4-pyrimidinediamine], the IC50 came to 2.17 µM in test [1] and 7.89 µM in test [2]. With `Cc1cc(Nc2nc(Nc3cccc(S(N)(=O)=O)c3)ncc2F)ccc1OC(C)C#N` (racemic) [Compound I-61, Racemic N2-(3-Aminosulfonyl)phenyl-N4-[4-(1-cyano)ethoxy-3-methyl]phenyl-5-fluoro-2,4-pyrimidinediamine], the IC50 in test [1] came to 0.123 µM. Consider `Cc1cc(Nc2nc(Nc3ccc(C)c(S(N)(=O)=O)c3)ncc2F)ccc1OC(C)C#N` (racemic) [Compound I-62, Racemic N2-(3-Aminosulfonyl-4-methyl)phenyl-N4-[4-(1-cyano)ethoxy-3-methyl]phenyl-5-fluoro-2,4-pyrimidinediamine], for which the IC50 is 0.376 µM in test [1] and 3.53 µM in test [2]. For `Cc1cc(Nc2nc(Nc3ccc(S(N)(=O)=O)cc3)ncc2F)cc(C)c1OC(C)C#N` (racemic) [Compound I-63, Racemic N2-(4-Aminosulfonyl)phenyl-N4-[4-(1-cyano)ethoxy-3,5-dimethyl]phenyl-5-fluoro-2,4-pyrimidinediamine], the IC50 came to 1.31 µM in test [1] and 34.3 µM in test [2]. As for `COc1cc(Nc2ncc(F)c(Nc3ccc(OC(C)C#N)c(C)c3)n2)ccc1S(N)(=O)=O` (racemic) [Compound I-64, Racemic N2-(4-Aminosulfonyl-3-methoxy)phenyl-N4-[4-(1-cyano)ethoxy-3-methyl]phenyl-5-fluoro-2,4-pyrimidinediamine], the IC50 worked out at 1.88 µM in test [1] and 5.17 µM in test [2].

Take `CC(C#N)Oc1ccc(Nc2nc(Nc3cccc(S(N)(=O)=O)c3)ncc2F)cc1` (racemic) [Compound I-65, Racemic N2-(3-Aminosulfonyl)phenyl-N4-[4-(1-cyano)ethoxy]phenyl-5-fluoro-2,4-pyrimidinediamine]: the IC50 in test [1] was found to be 0.0473 µM. `CC(C#N)Oc1ccc(Nc2nc(Nc3ccc(S(N)(=O)=O)cc3)ncc2F)cc1` (racemic) [Compound I-66, Racemic N2-(4-Aminosulfonyl)phenyl-N4-[4-(1-cyano)ethoxy]phenyl-5-fluoro-2,4-pyrimidinediamine]: in test [1], the IC50 is 0.287 µM. As for `Cc1ccc(Nc2ncc(F)c(Nc3ccc(OC(C)C#N)cc3)n2)cc1S(N)(=O)=O` (racemic) [Compound I-67, Racemic N2-(3-Aminosulfonyl-4-methyl)phenyl-N4-[4-(1-cyano)ethoxy]phenyl-5-fluoro-2,4-pyrimidinediamine], the IC50 came out at 0.157 µM in test [1] and 4.62 µM in test [2]. In the case of `CC(C#N)Oc1ccc(Nc2nc(Nc3ccc(F)c(S(N)(=O)=O)c3)ncc2F)cc1` (racemic) [Compound I-68, Racemic N2-(3-Aminosulfonyl-4-fluoro)phenyl-N4-[4-(1-cyano)ethoxy]phenyl-5-fluoro-2,4-pyrimidinediamine], the IC50 in test [1] amounted to 0.482 µM; in test [2], 4.96 µM.

With `Cc1cc(Nc2nc(Nc3ccc(F)c(S(N)(=O)=O)c3)ncc2F)ccc1OC(C)C#N` (racemic) [Compound I-69, Racemic N2-(3-Aminosulfonyl-4-fluoro)phenyl-N4-[4-(1-cyano)ethoxy-3-methyl]phenyl-5-fluoro-2,4-pyrimidinediamine], the IC50 in test [1] is 1.03 µM; in test [2], 5.64 µM. In the case of `COc1cc(Nc2ncc(F)c(Nc3ccc(OC(C)C#N)cc3)n2)ccc1S(N)(=O)=O` (racemic) [Compound I-70, Racemic N2-(4-Aminosulfonyl-3-methoxy)phenyl-N4-[4-(1-cyano)ethoxy]phenyl-5-fluoro-2,4-pyrimidinediamine], the half-maximal inhibitory concentration (IC50) was found to be 0.573 µM in test [1] and 3.43 µM in test [2]. In the same order, the values of `Cc1cc(Nc2nc(Nc3cccc(S(N)(=O)=O)c3)ncc2F)cc(C)c1OC(C)C#N` (racemic) [Compound I-71, Racemic N2-(3-Aminosulfonyl)phenyl-N4-[4-(1-cyano)ethoxy-3,5-dimethyl]phenyl-5-fluoro-2,4-pyrimidinediamine] are 0.136 µM and 3.27 µM.

For `Cc1ccc(Nc2ncc(F)c(Nc3cc(C)c(OC(C)C#N)c(C)c3)n2)cc1S(N)(=O)=O` (racemic) [Compound I-72, Racemic N2-(3-Aminosulfonyl-4-methyl)phenyl-N4-[4-(1-cyano)ethoxy-3,5-dimethyl]phenyl-5-fluoro-2,4-pyrimidinediamine], the IC50 came out at 0.303 µM in test [1] and 3.31 µM in test [2]. For the compound `N#CCOc1cccc(Nc2nc(Nc3cccc(S(N)(=O)=O)c3)ncc2F)c1` [Compound I-4, N2-(3-Aminosulfonyl)phenyl-N4-(3-cyanomethoxy)phenyl-5-fluoro-2,4-pyrimidinediamine], the IC50 in test [1] came out at 0.178 µM; in test [2], 4.86 µM. As for `Cc1cc(Nc2nc(Nc3ccc(F)c(S(N)(=O)=O)c3)ncc2F)ccc1OCC#N` [Compound I-34, N2-(3-Aminosulfonyl-4-fluoro)phenyl-N4-(4-cyanomethoxy-3-methyl)phenyl-5-fluoro-2,4-pyrimidinediamine], the IC50 in test [1] amounted to 0.806 µM. As for `Cc1cc(Nc2nc(Nc3ccc(F)c(S(N)(=O)=O)c3)ncc2F)cc(C)c1OCC#N` [Compound I-35, N2-(3-Aminosulfonyl-4-fluoro)phenyl-N4-(4-cyanomethoxy-3,5-dimethyl)phenyl-5-fluoro-2,4-pyrimidinediamine], the figures for the IC50 in test [1] and in test [2] were 1.13 µM and 8.58 µM, respectively. Regarding `Cc1ccc(Nc2ncc(F)c(Nc3ccc(OCC#N)cc3)n2)cc1S(=O)(=O)NC(=O)C(C)C` [Compound I-37, N4-(4-Cyanomethyleneoxy)phenyl-5-fluoro-N2-(3-isobutyrylaminosulfonyl-4-methyl)phenyl-2,4-pyrimidinediamine], in test [1], the half-maximal inhibitory concentration (IC50) was 3.68 µM. Consider `Cc1ccc(Nc2ncc(F)c(Nc3ccc(OCC#N)c(Cl)c3)n2)cc1S(N)(=O)=O` [Compound I-43, N2-(3-Aminosulfonyl-4-methylphenyl)-N4-(3-chloro-4-cyanomethoxypheny)-5-fluoro-2,4-pyrimidinediamine], for which the IC50 is 0.183 µM in test [1] and 36.7 µM in test [2].

Regarding `Cc1cnc(Nc2ccc(S(N)(=O)=O)cc2)nc1Nc1ccc(OCC#N)cc1` [Compound I-57, N2-(4-Aminosulfonylphenyl)-N4-(4-cyanomethoxyphenyl-5)-methyl-2,4-pyrimidinediamine], the IC50 in test [1] turned out to be 0.0531 µM.

`Cc1ccc(Nc2ncc(F)c(Nc3ccc(OC(C)(C)C#N)cc3)n2)cc1S(N)(=O)=O` [Compound I-73, N2-(3-Aminosulfonyl-4-methyl)phenyl-N4-[4-(1-cyano-1-methyl)ethoxy]phenyl-5-fluoro-2,4-pyrimidinediamine]: the IC50 came out at 0.728 µM in test [1] and 5.56 µM in test [2]. In the case of `CC(C)(C#N)Oc1ccc(Nc2nc(Nc3ccc(F)c(S(N)(=O)=O)c3)ncc2F)cc1` [Compound I-74, N2-(3-Aminosulfonyl-4-fluoro)phenyl-N4-[4-(1-cyano-1-methyl)ethoxy]phenyl-5-fluoro-2,4-pyrimidinediamine], the values for the IC50 in test [1] and in test [2] were 1.5 µM and 10.8 µM, respectively. As to `CC(C)(C#N)Oc1ccc(Nc2nc(Nc3ccc(S(N)(=O)=O)cc3)ncc2F)cc1` [Compound I-75, N2-(4-Aminosulfonyl)phenyl-N4-[4-(1-cyano-1-methyl)ethoxy]phenyl-5-fluoro-2,4-pyrimidinediamine], the IC50 in test [1] came out at 3.3 µM. On to `CC(C)(C#N)Oc1ccc(Nc2nc(Nc3cccc(S(N)(=O)=O)c3)ncc2F)cc1` [Compound I-76, N2-(3-Aminosulfonyl)phenyl-N4-[4-(1-cyano-1-methyl)ethoxy]phenyl-5-fluoro-2,4-pyrimidinediamine], for which the IC50 in test [1] turned out to be 0.196 µM; in test [2], 5.14 µM. Regarding `Cc1ccc(Nc2ncc(F)c(Nc3cccc(OCC(N)=O)c3)n2)cc1S(N)(=O)=O` [Compound I-90, N4-(3-Aminocarbonylmethoxy)phenyl-N2-(3-aminosulfonyl-4-methyl)phenyl-5-fluoro-2,4-pyrimidinediamine], in test [1], the IC50 was found to be 2.19 µM. Regarding `Cc1cc(Nc2nc(Nc3cccc(S(N)(=O)=O)c3)ncc2F)ccc1OCC(N)=O` [Compound I-92, N4-(4-Aminocarbonylmethoxy-3-methyl)phenyl-N2-(3-aminosulfonyl)phenyl-5-fluoro-2,4-pyrimidinediamine], the IC50 in test [1] stood at 0.543 µM. On to `Cc1ccc(Nc2ncc(F)c(Nc3ccc(OCC(N)=O)cc3)n2)cc1S(N)(=O)=O` [Compound I-94, N4-(4-Aminocarbonylmethoxy)phenyl-N2-(3-aminosulfonyl-4-methyl)phenyl-5-fluoro-2,4-pyrimidinediamine], for which, in test [1], the 50% inhibitory concentration (IC50) is 0.563 µM. Consider `Cc1cc(Nc2nc(Nc3ccc(C)c(S(N)(=O)=O)c3)ncc2F)ccc1OCC(N)=O` [Compound I-95, N4-(4-Aminocarbonylmethoxy-3-methyl)phenyl-N2-(3-aminosulfonyl-4-methyl)phenyl-5-fluoro-2,4-pyrimidinediamine], for which the IC50 in test [1] stood at 0.325 µM. Still for that read-out and setting: under `CNS(=O)(=O)c1cc(Nc2ncc(F)c(NCCc3ccc(-c4ccncc4)cc3)n2)ccc1C` [III-78, 5-Fluoro-N2-[3-N-(methyl)aminosulfonyl-4-methylphenyl]-N4-[4-(4-pyridinyl)phenethyl]-2,4-pyrimidinediamine] stands 0.204 µM. Turning to `CNS(=O)(=O)c1cc(Nc2ncc(F)c(Nc3ccc(Cn4ccnc4)cc3)n2)ccc1C` [III-83, 5-Fluoro-N2-[3-(N-methylaminosulfony)-4-methylphenyl]-5-fluoro-N4-[4-(1-imidazolylmethyl)phenyl]-2,4-pyrimidinediamine], the IC50 in test [1] was determined as 0.0962 µM.
